SMILES strings stand for the structures.

The test system of assay [1] is K-562 (human chronic myeloid leukaemia). The assay is described as follows: MTT cytotoxicity assay, K-562. The class given is cell-based. The method in brief:
(§1)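 IC50 values derive from nonlinear regression of MTT read-outs at 595 nm. Mycoplasma-free cells in RPMI 1640 or DMEM with 10% fetal serum were exposed to test compounds for 72 h, then given MTT for 3 h. Selectivity index uses L929 versus tumour-line cytotoxicity.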

A further assay concerns B16 (murine melanoma). The assay is described as follows: MTT cytotoxicity assay, B16. The class given is cell-based. The method in brief: as §1
A general note: Tetrazolium assays rely on reduction of a dye to a coloured formazan, in cell work by metabolically active cells.

Assay [2] has as its system A549 (human lung carcinoma). Put plainly: MTT cytotoxicity assay, A549. The class given is cell-based. The method in brief:
as §1

The subject of assay [3] is KG1 (human acute myeloid leukaemia). Put plainly: MTT cytotoxicity assay, KG1. It is filed as cell-based. The method in brief: as §1
The subject of assay [4] is RAJI (human Burkitt’s lymphoma). The assay is described as follows: MTT cytotoxicity assay, RAJI. The class given is cell-based. The method in brief: as §1
Assay [5] relates to HCT-116 (human colorectal carcinoma). Also noted: method as in PMID 34778772. Conditions: ratio L929 / HCT-116; * data previously described; cited from earlier work.
In assay [6] the test system is PC3 (human prostate adenocarcinoma). More on the design: method as in PMID 34778772. The settings on record: ratio L929 / PC3; * data previously described; cited from earlier work.
The test system of assay [7] is SNB-19 (human astrocytoma). More on the design: method as in PMID 34778772. The settings on record: ratio L929 / SNB-19; * data previously described; cited from earlier work.
In assay [8] the test system is HL60 (human pro-myelocytic leukaemia). Also noted: method as in PMID 34778772. The settings on record: ratio L929 / HL60; * data previously described; cited from earlier work.

As a reminder, the IC50 is the concentration that inhibits the measured activity by half. Regarding `COc1cccc2c1C(=O)c1c(O)c3c(c(O)c1C2=O)C[C@@](O)(C(=O)CO)C[C@@H]3O[C@H]1C[C@H](N)[C@H](O)[C@H](C)O1` [DOXO, doxorubicin, reference compound], the 50% inhibitory concentration (IC50) turned out to be 910 nM in assay [1] (Homo sapiens, K562, MTT, 72 h exposure, three independent experiments, read-out: Cytotoxic activity IC50 (95% CI) K-562); 60 nM with B16 (murine melanoma) (Mus musculus, MTT, 72 h exposure, three independent experiments, read-out: Cytotoxic activity IC50 (95% CI) B16); 570 nM in [2] (Homo sapiens, A549, MTT, 72 h exposure, three independent experiments, read-out: Cytotoxic activity IC50 (95% CI) A549); 380 nM in assay [3] (Homo sapiens, MTT, 72 h exposure, three independent experiments, read-out: Cytotoxic activity IC50 (95% CI) KG1); 2330 nM in assay [4] (Homo sapiens, Raji, 72 h, MTT, 72 h exposure, three independent experiments, read-out: Cytotoxic activity IC50 (95% CI) RAJI). The “Selectivity index K-562” value in assay [1] (ratio of cytotoxicity L929 / K-562) is listed as 1.9. Moreover, the “Selectivity index B16” value in the assay with B16 (murine melanoma) (ratio of cytotoxicity L929 / B16) came to 30.2. Besides, the “Selectivity index A549” value in [2] (ratio of cytotoxicity L929 / A549) is listed as 3.0. In addition, the “Selectivity index KG1” value in [3] (ratio of cytotoxicity L929 / KG1) is given as 4.5. For the same molecule, the “Selectivity index RAJI” value in assay [4] (ratio of cytotoxicity L929 / RAJI) stood at 0.7. The “Selectivity index HCT-116” value in assay [5] is recorded as 8.2 *. In addition, the “Selectivity index PC3” value in assay [6] was 2.3 *. The “Selectivity index SNB-19” value in assay [7] is on record as 1.4 *. In assay [8], the “Selectivity index HL60” value is recorded as 86.0 *.

The values above are taken from paper PMC10005332, “It Takes Two to Tango, Part II: Synthesis of A-Ring Functionalised Quinones Containing Two Redox-Active Centres with Antitumour Activities” (Molecules, 2023).
